# Measured values taken from US20220281846A1, “COMPOUNDS AND COMPOSITIONS FOR THE TREATMENT OF RESPIRATORY DISEASES” (THE UNIVERSITY OF MELBOURNE, priority 2018, published 2022).
# Tests used:
# ERBB4/HER4 = molecular target: T1, ERBB4/HER4 (Homo sapiens, UniProt Q15303); test: Kinase inhibition assay (HotSpot), ERBB4/HER4; type: biochemical; details: 10 μM ATP, 10-dose IC50 mode; read-out: Compound IC50 (M) ERBB4/HER4
# T1 construct: purchased Reaction Biology Corp
# MINK/MINK1 = molecular target: T2, MINK/MINK1 (Homo sapiens, UniProt Q8N4C8); test: Kinase inhibition assay (HotSpot), MINK/MINK1; type: biochemical; details: 10 μM ATP, 10-dose IC50 mode; read-out: Compound IC50 (M) MINK/MINK1
# T2 construct: purchased Reaction Biology Corp
# [1] = molecular target: T3, human recombinant Casein kinase 18 (CK1δ) (Homo sapiens, UniProt P48730); test: Kinase inhibition assay (HotSpot, Reaction Biology Corp), CK1δ; type: biochemical; details: 10 μM ATP, 10-dose IC50 mode; read-out: Compound IC50 (M) CK1δ
# T3 construct: purchased Reaction Biology Corp
# [2] = tested on: TGF-β-induced IL-11 in primary human parenchymal fibroblast cells (pFbs); test: Human parenchymal fibroblast cell assay, TGF-β-induced IL-11 (ELISA); type: cell-based; details: compounds 0.1-10 μM 30 min prior to TGF-β1, 16-24 hours, 4.00* is assigned to compounds that failed to cause 50% or more inhibition at 10 µM, read-out: pIC50 IL-11 suppression (converted)
# Description: Human Parenchymal Fibroblast Cell Assay
# Primary human parenchymal fibroblast cells (pFbs) were cultured from parenchyma of lung resection specimens and from non-transplanted lungs of donors without chronic respiratory disease. pFbs were passaged in Dulbecco's Modified Eagle's Media (DMEM) containing 10% (v/v) heat-inactivated fetal calf serum (FCS), 15 mM HEPES, 0.2% (v/v) sodium bicarbonate, 2 mM L-glutamine, 1% (v/v) non-essential amino acids, 1% (v/v) sodium pyruvate, 2.5 μg/mL amphotericin, 5 IU/mL penicillin and 50 μg/mL streptomycin. In some experiments the human lung fibroblast cell line, MRC5 (sourced from ATTC) was used as indicated. The MRC5 line was maintained under the same conditions as described for the pFb.
# Prior to experimentation, pFb were incubated in serum-free DMEM containing 0.25% bovine serum albumin (BSA) and insulin-transferrin-selenium-containing supplement (Monomed A; CSL, Parkville, Melbourne, Australia). The cells were incubated with small molecular CK1δ inhibitors (0.1-10 μM) for 30 min prior to […] TGF-β1 (R&D Systems, Minneapolis, Minn.) and the incubation continued for 16-24 hours prior to harvest of supernatant for detection of immunoreactive IL-11. Stock solutions were made as 10 mM in 100% DMSO and diluted to the required concentration in medium containing 0.1% DMSO (final concentration).
# Supernatants were collected for measurement of IL-11 (R&D DuoSet, DY218) by ELISA following the manufacturers' instructions. Generally, capture antibodies were initially diluted to the recommended concentrations using PBS buffer, and then used to coat the wells of 96-well microplates (Greiner, #655061) by adding 50 μL/well and incubated overnight at room temperature. Next day, solutions were discarded and wells were washed 3 times with wash buffer (PBS containing 0.1% (v/v) Tween-20) prior to the addition of 200 μL of blocking solution (PBS containing 1% (v/v) BSA) for 1 hour to block non-specific sites. Plates were then washed 3 times with wash buffer and 50 μL of samples or standards were then added to wells and incubated for 2 hours at room temperature. After the incubation, plates were washed 3 times with wash buffer and 50 μL of detection antibodies were added to wells and incubated for 2 hours at room temperature. Plates were then washed 3 times before adding streptavidin-conjugated horseradish peroxidase (at the recommended concentrations) for 45 min. Plates were then washed 5 times with wash buffer and 100 μL TMB substrate solution (equal parts A and B, BD Biosciences) was added to each well until sufficient signals emerged. The reactions were inactivated by adding 100 μL sulphuric acid (2M H2SO4). The absorbance was measured at 450 nm using the Multiskan Ascent® plate reader. The absorbance of the cytokine standards was fitted to a logistic equation, allowing the concentrations of cytokine in samples to be determined.
# PIC50 values (the negative log of the concentration suppressing IL-11 level by 50%) for inhibition of TGF-β-induced IL-11 were interpolated from the linear regression of log concentration small molecule versus IL-11 level (Table 4 and FIG. 2).
# T3 sequence (P48730 whole entry): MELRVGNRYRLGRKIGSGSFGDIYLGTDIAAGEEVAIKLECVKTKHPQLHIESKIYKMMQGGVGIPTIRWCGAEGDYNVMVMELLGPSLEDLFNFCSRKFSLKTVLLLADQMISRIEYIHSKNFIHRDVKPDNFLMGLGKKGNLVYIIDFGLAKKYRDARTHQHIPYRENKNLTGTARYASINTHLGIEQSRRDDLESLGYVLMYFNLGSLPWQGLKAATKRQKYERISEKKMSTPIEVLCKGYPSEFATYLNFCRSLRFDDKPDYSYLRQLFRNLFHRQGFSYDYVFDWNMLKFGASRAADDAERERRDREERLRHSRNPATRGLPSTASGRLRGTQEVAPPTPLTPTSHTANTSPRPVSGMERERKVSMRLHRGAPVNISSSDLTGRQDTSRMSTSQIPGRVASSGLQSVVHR
# T2 sequence (Q8N4C8 whole entry): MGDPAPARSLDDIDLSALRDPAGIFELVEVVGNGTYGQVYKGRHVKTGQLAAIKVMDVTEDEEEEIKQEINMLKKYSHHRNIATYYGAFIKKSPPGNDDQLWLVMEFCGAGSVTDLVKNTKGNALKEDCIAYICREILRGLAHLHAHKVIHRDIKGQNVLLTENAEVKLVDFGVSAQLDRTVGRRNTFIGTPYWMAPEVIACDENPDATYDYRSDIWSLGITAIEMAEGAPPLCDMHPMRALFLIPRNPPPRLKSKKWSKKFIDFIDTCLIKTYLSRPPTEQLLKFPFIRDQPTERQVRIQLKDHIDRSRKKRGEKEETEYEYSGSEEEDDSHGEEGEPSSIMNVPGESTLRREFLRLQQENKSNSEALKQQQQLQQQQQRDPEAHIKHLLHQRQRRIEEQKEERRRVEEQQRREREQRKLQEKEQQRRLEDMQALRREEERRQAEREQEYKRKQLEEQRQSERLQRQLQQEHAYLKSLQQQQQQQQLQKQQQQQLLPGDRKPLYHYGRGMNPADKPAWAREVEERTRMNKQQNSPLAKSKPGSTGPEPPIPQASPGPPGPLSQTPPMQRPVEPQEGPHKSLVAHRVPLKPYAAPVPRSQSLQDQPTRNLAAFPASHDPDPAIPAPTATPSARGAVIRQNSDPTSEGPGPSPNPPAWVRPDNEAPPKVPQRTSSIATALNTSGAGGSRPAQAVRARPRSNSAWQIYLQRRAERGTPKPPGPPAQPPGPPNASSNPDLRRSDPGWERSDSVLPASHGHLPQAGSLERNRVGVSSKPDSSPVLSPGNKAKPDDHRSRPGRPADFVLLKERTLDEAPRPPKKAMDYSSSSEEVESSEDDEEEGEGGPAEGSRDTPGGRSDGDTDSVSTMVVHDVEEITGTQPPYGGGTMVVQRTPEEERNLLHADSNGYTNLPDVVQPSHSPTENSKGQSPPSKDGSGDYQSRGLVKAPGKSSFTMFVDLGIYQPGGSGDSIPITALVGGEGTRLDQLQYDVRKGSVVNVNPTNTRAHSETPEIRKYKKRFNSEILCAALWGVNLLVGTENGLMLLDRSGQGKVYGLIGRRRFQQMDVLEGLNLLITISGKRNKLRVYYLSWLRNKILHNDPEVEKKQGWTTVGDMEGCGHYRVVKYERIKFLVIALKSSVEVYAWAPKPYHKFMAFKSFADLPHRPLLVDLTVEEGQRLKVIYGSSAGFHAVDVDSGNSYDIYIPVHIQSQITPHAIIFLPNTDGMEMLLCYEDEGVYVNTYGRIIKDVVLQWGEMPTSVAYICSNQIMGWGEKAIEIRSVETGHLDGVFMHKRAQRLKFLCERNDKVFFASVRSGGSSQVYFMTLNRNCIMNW
# T1 sequence (Q15303 26-1308): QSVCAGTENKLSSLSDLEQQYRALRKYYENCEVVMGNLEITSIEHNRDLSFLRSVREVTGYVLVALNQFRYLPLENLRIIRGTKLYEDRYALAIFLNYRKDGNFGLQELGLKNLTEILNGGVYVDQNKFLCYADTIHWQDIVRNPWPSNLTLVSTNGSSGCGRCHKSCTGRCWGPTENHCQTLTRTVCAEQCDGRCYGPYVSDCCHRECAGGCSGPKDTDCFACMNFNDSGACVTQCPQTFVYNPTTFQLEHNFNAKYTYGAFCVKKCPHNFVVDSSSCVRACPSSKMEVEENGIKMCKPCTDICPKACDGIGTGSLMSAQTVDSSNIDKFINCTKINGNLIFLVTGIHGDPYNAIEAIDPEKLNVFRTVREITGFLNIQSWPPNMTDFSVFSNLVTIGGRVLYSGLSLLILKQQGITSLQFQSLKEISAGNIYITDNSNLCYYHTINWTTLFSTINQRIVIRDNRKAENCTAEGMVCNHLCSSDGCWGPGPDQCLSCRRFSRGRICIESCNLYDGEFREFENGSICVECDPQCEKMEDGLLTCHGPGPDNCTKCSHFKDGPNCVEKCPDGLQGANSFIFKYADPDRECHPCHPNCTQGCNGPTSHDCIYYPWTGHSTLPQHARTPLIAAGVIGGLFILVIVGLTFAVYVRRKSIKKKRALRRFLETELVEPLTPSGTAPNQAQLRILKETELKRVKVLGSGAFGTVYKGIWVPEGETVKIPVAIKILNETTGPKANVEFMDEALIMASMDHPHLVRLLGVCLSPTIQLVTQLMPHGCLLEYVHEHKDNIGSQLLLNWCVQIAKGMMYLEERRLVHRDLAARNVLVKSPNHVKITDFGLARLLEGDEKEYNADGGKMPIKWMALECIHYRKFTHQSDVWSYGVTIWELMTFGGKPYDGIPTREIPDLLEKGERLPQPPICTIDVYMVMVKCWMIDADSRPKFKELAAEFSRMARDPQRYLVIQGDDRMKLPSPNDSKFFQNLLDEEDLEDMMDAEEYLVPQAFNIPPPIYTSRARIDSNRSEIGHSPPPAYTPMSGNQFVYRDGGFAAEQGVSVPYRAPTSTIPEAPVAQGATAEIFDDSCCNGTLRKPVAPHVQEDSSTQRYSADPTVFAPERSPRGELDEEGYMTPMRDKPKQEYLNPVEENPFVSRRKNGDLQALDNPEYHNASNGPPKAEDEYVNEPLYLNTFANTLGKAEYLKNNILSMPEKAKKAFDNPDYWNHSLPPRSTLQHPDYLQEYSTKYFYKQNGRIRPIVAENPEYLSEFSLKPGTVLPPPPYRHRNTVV
IC50 (ERBB4/HER4),IC50 (MINK/MINK1),IC50 [1],Compound,IC50 [2]
9.01e-06 M,6.69e-08 M,4.99e-09 M,"Fc1ccc(-c2ncn(C3CCCCC3)c2-c2ccnc(NC3CCCC3)n2)cc1 [ZH2-46, 4-(1-Cyclohexyl-4-(4-fluorophenyl)-1H-imidazol-5-yl)-N-cyclopentylpyrimidin-2-amine]",
,1.7e-07 M,1.73e-09 M,"Fc1ccc(-c2ncn(C3CCCCC3)c2-c2ccnc(NC3CCOCC3)n2)cc1 [ZH2-54, 4-(1-Cyclohexyl-4-(4-fluorophenyl)-1H-imidazol-5-yl)-N-(tetrahydro-2H-pyran-4-yl)pyrimidin-2-amine]",4370 nM
> 1e-05 M,2.36e-07 M,1.95e-08 M,"Fc1ccc(-c2ncn(C3CCCCC3)c2-c2ccnc(NC3CCCCC3)n2)cc1 [ZH2-58, N-Cyclohexyl-4-(1-cyclohexyl-4-(4-fluorophenyl)-1H-imidazol-5-yl)pyrimidin-2-amine]",29500 nM
7.5e-07 M,2.26e-08 M,4.7e-09 M,"CCNc1nccc(-c2c(-c3ccc(F)cc3)ncn2C2CCCCC2)n1 [ZH2-78, 4-(1-Cyclohexyl-4-(4-fluorophenyl)-1H-imidazol-5-yl)-N-ethylpyrimidin-2-amine]",295 nM
,3.33e-08 M,3.67e-09 M,"Fc1ccc(-c2ncn(C3CCCCC3)c2-c2ccnc(NCc3cccc(F)c3)n2)cc1 [ZH2-114, 4-(1-Cyclohexyl-4-(4-fluorophenyl)-1H-imidazol-5-yl)-N-(3-fluorobenzyl)pyrimidin-2-amine]",
3.66e-06 M,4.21e-08 M,9.6e-09 M,"Fc1ccc(-c2ncn(C3CCCCC3)c2-c2ccnc(NCc3ccccc3F)n2)cc1 [ZH2-118, 4-(1-Cyclohexyl-4-(4-fluorophenyl)-1H-imidazol-5-yl)-N-(2-fluorobenzyl)pyrimidin-2-amine]",1450 nM
,1.95e-08 M,5.07e-09 M,"Fc1ccc(CNc2nccc(-c3c(-c4ccc(F)cc4)ncn3C3CCCCC3)n2)cc1 [ZH2-122, 4-(1-Cyclohexyl-4-(4-fluorophenyl)-1H-imidazol-5-yl)-N-(4-fluorobenzyl)pyrimidin-2-amine]",2450 nM
,1.1e-07 M,4.93e-09 M,"Fc1ccc(-c2ncn(C3CCCCC3)c2-c2ccnc(NC3CCC(F)(F)CC3)n2)cc1 [ZH2-146, 4-(1-Cyclohexyl-4-(4-fluorophenyl)-1H-imidazol-5-yl)-N-(4,4-difluorocyclohexyl)pyrimidin-2-amine]",11500 nM
4.41e-06 M,1.73e-08 M,1.36e-09 M,"O[C@H]1C[C@H](Nc2nccc(-c3c(-c4ccc(F)cc4)ncn3C3CCCCC3)n2)C1 [ZH3-50, trans-3-((4-(1-Cyclohexyl-4-(4-fluorophenyl)-1H-imidazol-5-yl)pyrimidin-2-yl)amino)cyclobutan-1-ol]",417 nM
1.39e-06 M,2.17e-07 M,8.33e-09 M,"Nc1nccc(-c2c(-c3ccc(F)cc3)ncn2C2CCCC2)n1 [ZH3-58, 4-(1-Cyclopentyl-4-(4-fluorophenyl)-1H-imidazol-5-yl)pyrimidin-2-amine]",550 nM
> 1e-05 M,7.53e-09 M,1.31e-09 M,"O[C@H]1C[C@@H](Nc2nccc(-c3c(-c4ccc(F)cc4)ncn3C3CCCCC3)n2)C1 [ZH3-62, cis-3-((4-(1-Cyclohexyl-4-(4-fluorophenyl)-1H-imidazol-5-yl)pyrimidin-2-yl)amino)cyclobutan-1-ol]",1000 nM
,2.16e-08 M,1e-09 M,"Fc1ccc(-c2ncn(C3CCCCC3)c2-c2ccnc(NC3CC(F)(F)C3)n2)cc1 [ZH3-70, 4-(1-Cyclohexyl-4-(4-fluorophenyl)-1H-imidazol-5-yl)-N-(3,3-difluorocyclobutyl)pyrimidin-2-amine]",
8.35e-06 M,8.09e-07 M,5.93e-08 M,"CC(C)(C)Cn1cnc(-c2ccc(F)cc2)c1-c1ccnc(N)n1 [ZH3-78, 4-(4-(4-Fluorophenyl)-1-neopentyl-1H-imidazol-5-yl)pyrimidin-2-amine]",8510 nM
1.48e-06 M,1.06e-08 M,7.59e-09 M,"Fc1ccc(-c2ncn(C3CCCCC3)c2-c2ccnc(NC3CC3)n2)cc1 [ZH3-86, 4-(1-Cyclohexyl-4-(4-fluorophenyl)-1H-imidazol-5-yl)-N-cyclopropylpyrimidin-2-amine]",339 nM
3e-06 M,9.44e-08 M,1.17e-09 M,"Fc1ccc(-c2ncn(CC3CCCCC3)c2-c2ccnc(NC3COC3)n2)cc1 [ZH3-114, 4-(1-(Cyclohexylmethyl)-4-(4-fluorophenyl)-1H-imidazol-5-yl)-N-(oxetan-3-yl)pyrimidin-2-amine]",10500 nM
5.13e-07 M,1.97e-07 M,2.13e-09 M,"OCCNc1nccc(-c2c(-c3ccc(F)cc3)ncn2CC2CCCCC2)n1 [ZH3-118, 2-((4-(1-(Cyclohexylmethyl)-4-(4-fluorophenyl)-1H-imidazol-5-yl)pyrimidin-2-yl)amino)ethan-1-ol]",8320 nM
4.42e-06 M,1.83e-08 M,4.16e-09 M,"CCn1cnc(-c2ccc(F)cc2)c1-c1ccnc(NC2CCC2)n1 [ZH3-122, N-Cyclobutyl-4-(1-ethyl-4-(4-fluorophenyl)-1H-imidazol-5-yl)pyrimidin-2-amine]",178 nM
1.42e-06 M,8.9e-07 M,6.13e-09 M,"Nc1nccc(-c2c(-c3ccc(F)cc3)ncn2CC2CCC(F)(F)CC2)n1 [ZH3-130, 4-(1-((4,4-Difluorocyclohexyl)methyl)-4-(4-fluorophenyl)-1H-imidazol-5-yl)pyrimidin-2-amine]",832 nM
,3.77e-08 M,1.15e-09 M,"O=S1(=O)CCC(Nc2nccc(-c3c(-c4ccc(F)cc4)ncn3C3CCCCC3)n2)CC1 [ZH3-134, 4-((4-(1-Cyclohexyl-4-(4-fluorophenyl)-1H-imidazol-5-yl)pyrimidin-2-yl)amino)tetrahydro-2H-thiopyran 1,1-dioxide]",
